# Measurements published in patent publication US20220073536A1 (Rigel Pharmaceuticals, Inc., priority 2003, published 2022).
# pIC50: −log10 of the molar value.
# Assays:
# [1] = system: cultured human mast cells (CHMC); assay: CHMC low cell density ionomycin activation: tryptase assay; assay type: cell-based; conditions: 3 pt, read-out: LD Tryptase, CHMC, Iono, 3 pt
# [2] = system: cultured human mast cells (CHMC); assay: CHMC low cell density IgE activation: tryptase assay; assay type: cell-based; conditions: IgE activation
# Summary of the method: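 Anti-IgE-driven degranulation of cultured human mast cells at low density, 1000–1500 cells/well, was induced over 30 min at 37 °C. It was scored by supernatant tryptase activity on a fluorogenic substrate.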
# [3] = Homo sapiens, Mast cell, low cell density CHMC, tryptase
# [4] = Homo sapiens, Mast cell, low cell density CHMC, tryptase, 3 pt, read-out: LD Tryptase, CHMC, IgE, 3 pt
# [5] = Homo sapiens, Mast cell, low cell density CHMC, tryptase, 8 pt, read-out: LD Tryptase, CHMC, IgE, 8 pt
# [6] = low cell density CHMC, tryptase
# [7] = low cell density CHMC, tryptase, 3 pt, read-out: LD Tryptase, CHMC, IgE, 3 pt
# [8] = Homo sapiens, Mast cell, low cell density
# [9] = Homo sapiens, Mast cell, low cell density, 3 pt, read-out: LD Tryptase, CHMC, IgE, 3 pt
# [10] = low cell density, 3 pt, read-out: LD Tryptase, CHMC, IgE, 3 pt
# [11] = Homo sapiens, Mast cell, low cell density, 8 pt, read-out: LD Tryptase, CHMC, IgE, 8 pt
structure (smiles),measurement,setting,value
"COc1ccc(N(C)c2nc(Nc3cccc(-c4cnco4)c3)ncc2F)cc1OC [Compound 438, N4-(3,4-Dimethoxyphenyl)-5-fluoro-N4-methyl-N2-[3-(oxazol-5-yl)phenyl]-2,4-pyrimidinediamine]",pIC50,[1]; [3],< 5.00
same,pIC50,[2]; [4],> 5.00
same,pIC50,[2]; [5],> 5.00
"COc1ccc(N(C)c2nc(Nc3ccc(-c4ncco4)cc3)ncc2F)cc1OC [Compound 440, N4-(3,4-Dimethoxyphenyl)-5-fluoro-N4-methyl-N2-[4-(oxazol-2-yl)phenyl]-2,4-pyrimidinediamine]",pIC50,[1]; [3],< 5.00
same,pIC50,[2]; [4],> 5.00
COC(=O)CN(c1ccc2c(c1)OCCO2)c1nc(Nc2cc(C)cc(C)c2)ncc1F [Compound 441],pIC50,[1]; [3],< 5.00
same,pIC50,[2]; [4],> 5.00
COC(=O)CN(c1ccc2c(c1)OCCO2)c1nc(Nc2cc(OC)cc(OC)c2)ncc1F [Compound 442],pIC50,[1]; [3],< 5.00
same,pIC50,[2]; [4],> 5.00
COC(=O)CN(c1ccc2c(c1)OCCO2)c1nc(Nc2cccc(-c3cnco3)c2)ncc1F [Compound 443],pIC50,[1]; [3],< 5.00
same,pIC50,[2]; [4],> 5.00
COC(=O)CN(c1ccc2c(c1)OCCO2)c1nc(Nc2cccc(-c3ncco3)c2)ncc1F [Compound 444],pIC50,[1]; [3],< 5.00
same,pIC50,[2]; [4],> 5.00
COC(=O)CN(c1ccc2c(c1)OCCO2)c1nc(Nc2ccc(-c3ncco3)cc2)ncc1F [Compound 445],pIC50,[1]; [3],< 5.00
same,pIC50,[2]; [4],> 5.00
"CNC(=O)COc1cccc(Nc2ncc(F)c(N(CC(=O)OC)c3ccc4c(c3)OCCO4)n2)c1 [Compound 446, N4-(3,4-Ethylenedioxyphenyl)-5-fluoro-N4-(methoxycarbonylmethyl)-N2-[3-(N-methylamino)carbonylmethyleneoxyphenyl]-2,4-pyrimidinediamine]",pIC50,[1]; [6],< 5.00
same,pIC50,[2]; [7],> 5.00
"CNC(=O)COc1cccc(Nc2ncc(F)c(N(C)c3ccc(OC)c(OC)c3)n2)c1 [Compound 447, N4-(3,4-Dimethoxyphenyl)-5-fluoro-N4-methyl-N2-[3-(N-methylamino)carbonylmethyleneoxyphenyl]-2,4-pyrimidinediamine]",pIC50,[1]; [6],< 5.00
same,pIC50,[2]; [7],> 5.00
CNC(=O)c1cc(Nc2ncc(F)c(Nc3ccc4c(c3)OCCO4)n2)ccc1Cl [Compound 448],pIC50,[1]; [3],< 5.00
same,pIC50,[2]; [4],> 5.00
same,pIC50,[2]; [5],> 5.00
"CNC(=O)c1cc(Nc2ncc(F)c(Nc3ccc(OC)c(OC)c3)n2)ccc1Cl [Compound 449, N2-[4-Chloro-3-(N-methylamino)carbonylphenyl]-N4-(3,4-dimethoxyphenyl)-5-fluoro-2,4-pyrimidinediamine]",pIC50,[1]; [3],< 5.00
same,pIC50,[2]; [4],> 5.00
CNC(=O)c1cc(Nc2ncc(F)c(Nc3cc(OC)cc(OC)c3)n2)ccc1Cl [Compound 450],pIC50,[1]; [3],< 5.00
same,pIC50,[2]; [4],> 5.00
"CNC(=O)c1cc(Nc2ncc(F)c(Nc3ccc(OC)c(Cl)c3)n2)ccc1Cl [Compound 451, N4-(3-Chloro-4-methoxyphenyl)-N2-[4-chloro-3-(N-methylamino)carbonylphenyl]-5-fluoro-2,4-pyrimidinediamine]",pIC50,[1]; [8],> 5.00
same,pIC50,[2]; [9],> 5.00
"CCOC(=O)C(C)(C)Oc1ccc(Nc2nc(Nc3ccc(Cl)c(C(=O)NC)c3)ncc2F)cc1Cl [Compound 452, N4-[3-Chloro-4-(ethoxycarbonyl-1,1-dimethylmethyleneoxy)phenyl]-N2-[4-chloro-3-(N-methylamino)carbonylphenyl]-5-fluoro-2,4-pyrimidinediamine]",pIC50,[1]; low cell density,> 5.00
same,pIC50,[2]; [10],> 5.00
"CNC(=O)c1cc(Nc2ncc(F)c(N(C)c3ccc4c(c3)OCCO4)n2)ccc1Cl [Compound 453, N2-[4-Chloro-3-(N-methylamino)carbonylphenyl]-N4-(3,4-ethylenedioxyphenyl)-5-fluoro-N4-methyl-4-pyrimidinediamine]",pIC50,[1]; low cell density,< 5.00
same,pIC50,[2]; [10],> 5.00
"CNC(=O)c1cc(Nc2ncc(F)c(N(C)c3ccc(OC)c(OC)c3)n2)ccc1Cl [Compound 454, N2-[4-Chloro-3-(N-methylamino)carbonylphenyl]-N4-(3,4-dimethoxyphenyl)-5-fluoro-N4-methyl-4-pyrimidinediamine]",pIC50,[1]; low cell density,< 5.00
same,pIC50,[2]; [10],> 5.00
CNC(=O)c1cc(Nc2ncc(F)c(Nc3ccc4c(c3)NC(=O)C(C)(C)O4)n2)ccc1Cl [Compound 455],pIC50,[1]; [8],< 5.00
same,pIC50,[2]; [9],> 5.00
same,pIC50,[2]; [11],> 5.00
"CNC(=O)c1ccc(Nc2ncc(F)c(Nc3ccc4c(c3)NC(=O)C(C)(C)O4)n2)cc1Cl [Compound 456, N2-[3-Chloro-4-(N-methylamino)carbonylphenyl]-N4-(2,2-dimethyl-3-oxo-4H-benz[1,4]oxazin-6-yl)-5-fluoro-2,4-pyrimidinediamine]",pIC50,[1]; [8],> 5.00
same,pIC50,[2]; [9],> 5.00
same,pIC50,[2]; [11],> 5.00
COc1cc(OC)cc(N(C)c2nc(Nc3ccc(OC)nc3OC)ncc2F)c1 [Compound 457],pIC50,[1]; [8],> 5.00
same,pIC50,[2]; [9],> 5.00
same,pIC50,[2]; [11],> 5.00
COc1ccc(Nc2ncc(F)c(N(C)c3ccc4c(c3)OCCO4)n2)c(OC)n1 [Compound 458],pIC50,[1]; [8],< 5.00
same,pIC50,[2]; [9],< 5.00
COc1cc(Nc2nc(Nc3ccc(OC)nc3OC)ncc2F)cc(OC)c1 [Compound 459],pIC50,[1]; [8],< 5.00
same,pIC50,[2]; [9],> 5.00
COc1ccc(Nc2ncc(F)c(Nc3ccc4c(c3)OCCO4)n2)c(OC)n1 [Compound 460],pIC50,[1]; [8],< 5.00
same,pIC50,[2]; [9],> 5.00
CNc1ncc(F)c(N(C)c2ccc3c(c2)OCCO3)n1 [Compound 461],pIC50,[1]; [8],< 5.00
same,pIC50,[2]; [9],< 5.00
"CN(C)c1ncc(F)c(N(C)c2ccc3c(c2)OCCO3)n1 [Compound 462, N2-Dimethyl-N4-(3,4-ethylenedioxyphenyl)-5-fluoro-N4-methyl-2,4-pyrimidinediamine]",pIC50,[1]; low cell density,< 5.00
same,pIC50,[2]; [10],< 5.00
CNC(=O)c1ccc(Nc2ncc(F)c(Nc3ccc4c(c3)OCCO4)n2)cc1Cl [Compound 463],pIC50,[1]; [8],< 5.00
same,pIC50,[2]; [9],> 5.00
same,pIC50,[2]; [11],> 5.00
"CNC(=O)c1ccc(Nc2ncc(F)c(Nc3ccc(OC)c(OC)c3)n2)cc1Cl [Compound 464, N2-[3-Chloro-4-(N-methylamino)carbonylphenyl]-N4-(3,4-dimethoxyphenyl)-5-fluoro-2,4-pyrimidinediamine]",pIC50,[1]; [8],< 5.00
same,pIC50,[2]; [9],> 5.00
CNC(=O)c1ccc(Nc2ncc(F)c(Nc3cc(OC)cc(OC)c3)n2)cc1Cl [Compound 465],pIC50,[1]; [8],< 5.00
same,pIC50,[2]; [9],> 5.00
CNC(=O)c1ccc(Nc2ncc(F)c(Nc3ccc(OC)c(Cl)c3)n2)cc1Cl [Compound 466],pIC50,[1]; [8],< 5.00
same,pIC50,[2]; [9],> 5.00
same,pIC50,[2]; [11],> 5.00
"CCOC(=O)C(C)(C)Oc1ccc(Nc2nc(Nc3ccc(C(=O)NC)c(Cl)c3)ncc2F)cc1Cl [Compound 467, N4-[3-Chloro-4-(ethoxycarbonyl-1,1-dimethylmethyleneoxy)phenyl]-N2-[3-chloro-4-(N-methylamino)carbonylphenyl]-5-fluoro-2,4-pyrimidinediamine]",pIC50,[1]; low cell density,> 5.00
same,pIC50,[2]; [10],> 5.00
same,pIC50,"[2]; low cell density, 8 pt, read-out: LD Tryptase, CHMC, IgE, 8 pt",> 5.00
CNC(=O)c1ccc(Nc2ncc(F)c(Nc3cccc(O)c3)n2)cc1Cl [Compound 468],pIC50,[1]; [8],< 5.00
same,pIC50,[2]; [9],> 5.00
same,pIC50,[2]; [11],> 5.00
"CN(c1ccc2c(c1)OCCO2)c1nc(NCCO)ncc1F [Compound 469, N4-(3,4-Ethylenedioxyphenyl)-5-fluoro-N2-(2-hydroxyethyl)-N4-methyl-2,4-pyrimidinediamine]",pIC50,[1]; [8],< 5.00
same,pIC50,[2]; [9],< 5.00
"CCOC(=O)C(C)(C)Oc1ccc(N(C)c2nc(Cl)ncc2F)cc1Cl [Compound 470, 2-Chloro-N4-[3-chloro-4-(ethoxycarbonyl-1,1-dimethylmethyleneoxy)phenyl]-5-fluoro-N4-methyl-4-pyrimidineamine]",pIC50,[1]; low cell density,> 5.00
same,pIC50,[2]; [10],< 5.00
"CC(C)Nc1ncc(F)c(N(C)c2ccc3c(c2)OCCO3)n1 [Compound 471, N4-(3,4-Ethylenedioxyphenyl)-5-fluoro-N2-isopropyl-N4-methyl-2,4-pyrimidinediamine]",pIC50,[1]; [8],< 5.00
same,pIC50,[2]; [9],< 5.00
COc1ccc(Nc2ncc(F)c(Nc3cccc(O)c3)n2)c(OC)n1 [Compound 472],pIC50,[1]; [8],< 5.00
same,pIC50,[2]; [9],> 5.00
"CNC(=O)c1ccc(Nc2ncc(F)c(N(C)c3ccc4c(c3)OCCO4)n2)cc1Cl [Compound 473, N2-[3-Chloro-4-(N-methylamino)carbonylphenyl]-N4-(3,4-ethylenedioxyphenyl)-5-fluoro-N4-methyl-2,4-pyrimidinediamine]",pIC50,[1]; [8],< 5.00
same,pIC50,[2]; [9],> 5.00
"CNC(=O)c1ccc(Nc2ncc(F)c(N(C)c3ccc(OC)c(OC)c3)n2)cc1Cl [Compound 474, N2-[3-Chloro-4-(N-methylamino)carbonylphenyl]-N4-(3,4-dimethoxyphenyl)-5-fluoro-N4-methyl-2,4-pyrimidinediamine]",pIC50,[1]; [8],< 5.00
same,pIC50,[2]; [9],> 5.00
"CNC(=O)c1cc(Nc2nc(Nc3cc(OC)cc(OC)c3)ncc2F)ccc1Cl [Compound 475, N4-[4-Chloro-3-(N-methylamino)carbonylphenyl]-N2-(3,5-dimethoxyphenyl)-5-fluoro-2,4-pyrimidinediamine]",pIC50,[1]; [8],< 5.00
same,pIC50,[2]; [9],> 5.00
same,pIC50,[2]; [11],> 5.00
"CNC(=O)c1cc(Nc2nc(Nc3cc(C)cc(C)c3)ncc2F)ccc1Cl [Compound 476, N4-[4-Chloro-3-(N-methylamino)carbonylphenyl]-N2-(3,5-dimethylphenyl)-5-fluoro-2,4-pyrimidinediamine]",pIC50,[1]; [8],< 5.00
same,pIC50,[2]; [9],> 5.00
same,pIC50,[2]; [11],> 5.00
